US9169254B2, “Spiroimidazolone derivative” (Chugai Seiyaku Kabushiki Kaisha, priority 2009, dated 2015)

Each compound was assayed against T1, human PTH1 receptor (Homo sapiens, UniProt Q03431) (assay: In vitro cAMP signal activity in HKRK-B7 cells (LLC-PK1 cells overexpressing the human PTH1 receptor)). Conditions: HKRK-B7 cells; compound at 1×10^−3 M; cAMP produced as percentage of that produced by hPTH(1-34) at 100 nM.
T1 sequence (Q03431 27-593): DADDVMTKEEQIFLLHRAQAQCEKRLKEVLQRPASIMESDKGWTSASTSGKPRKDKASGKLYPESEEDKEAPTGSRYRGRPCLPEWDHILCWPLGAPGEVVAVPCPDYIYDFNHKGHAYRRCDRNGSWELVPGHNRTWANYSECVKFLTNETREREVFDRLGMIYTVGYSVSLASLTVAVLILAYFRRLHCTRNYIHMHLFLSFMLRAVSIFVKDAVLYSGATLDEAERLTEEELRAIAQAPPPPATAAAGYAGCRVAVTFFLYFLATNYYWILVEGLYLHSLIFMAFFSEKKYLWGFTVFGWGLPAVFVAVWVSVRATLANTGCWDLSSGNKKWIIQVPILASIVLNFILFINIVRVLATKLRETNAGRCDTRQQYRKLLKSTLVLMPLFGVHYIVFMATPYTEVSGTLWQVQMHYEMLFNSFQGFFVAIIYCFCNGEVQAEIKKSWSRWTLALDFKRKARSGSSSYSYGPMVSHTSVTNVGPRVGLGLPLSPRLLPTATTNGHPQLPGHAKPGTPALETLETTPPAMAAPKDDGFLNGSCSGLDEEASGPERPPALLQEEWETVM
Type: cell-based

cAMP production activity (%) | Structure (SMILES)
77 | Cc1cc(S(=O)(=O)NC2CCN(Cc3ccccc3)CC2)ccc1CCS(=O)(=O)N1CCC2(CC1)N=C(c1cccc(OC(F)(F)F)c1)NC2=O [Compound 848, N-(1-benzyl-piperidin-4-yl)-3-methyl-4-{2-[4-oxo-2-(3-trifluoromethoxy-phenyl)-1,3,8-triaza-spiro[4.5]dec-1-ene-8-sulfonyl]-ethyl}-benzenesulfonamide]
47 | CC(=O)N(C)c1ccc(C)c(/C=C/S(=O)(=O)N2CCC3(CC2)N=C(c2cccc(OC(F)(F)F)c2)NC3=O)c1 [Compound 225, N-methyl-N-(4-methyl-3-{(E)-2-[4-oxo-2-(3-trifluoromethoxy-phenyl)-1,3,8-triaza-spiro[4.5]dec-1-ene-8-sulfonyl]-vinyl}-phenyl)-acetamide]
24 | Cc1cc(N2C(=O)N(C)C(C)(C)C2=O)cc(C)c1/C=C/S(=O)(=O)N1CCC2(CC1)N=C(C1CCC(C)CC1)NC2=O (stereo not shown) [Compound 508, 3-(3,5-dimethyl-4-{(E)-2-[2-(4-methyl-cyclohexyl)-4-oxo-1,3,8-triaza-spiro[4.5]dec-1-ene-8-sulfonyl]-vinyl}-phenyl)-1,5,5-trimethyl-imidazolidine-2,4-dione]
87 | Cc1ccc(O)cc1/C=C/S(=O)(=O)N1CCC2(CC1)N=C(c1cccc(OC(F)(F)F)c1)NC2=O [Compound 227, 8-[(E)-2-(5-hydroxy-2-methyl-phenyl)-ethenesulfonyl]-2-(3-trifluoromethoxy-phenyl)-1,3,8-triaza-spiro[4.5]dec-1-en-4-one]
38 | O=C(CCc1ccccc1)N1CCCC(C2=NC3(CCN(S(=O)(=O)CCc4cccc5ccccc45)CC3)C(=O)N2)C1 (stereo not shown) [Compound 429, 8-(2-naphthalen-1-yl-ethanesulfonyl)-2-[1-(3-phenyl-propionyl)-piperidin-3-yl]-1,3,8-triaza-spiro[4.5]dec-1-en-4-one]
17 | Cc1cc2ccc1CCS(=O)(=O)N1CCC3(CC1)N=C(NC3=O)c1cc(cc(C(F)(F)F)c1)OCCC/C=C\NC(=O)CN(C)C2=O [Compound 1423]
81 | CC(=O)Nc1ccc(CCS(=O)(=O)N2CCC3(CC2)N=C(C2CCC(COC(C)C)CC2)NC3=O)c(C)c1 (stereo not shown) [Compound 913, N-(4-{2-[2-(4-isopropoxymethyl-cyclohexyl)-4-oxo-1,3,8-triaza-spiro[4.5]dec-1-ene-8-sulfonyl]-ethyl}-3-methyl-phenyl)-acetamide]
52 | CCCCC1CCC(C2=NC3(CCN(S(=O)(=O)/C=C/c4c(C)cc(N(CCOCCOC)C(C)=O)cc4C)CC3)C(=O)N2)CC1 (stereo not shown) [Compound 561, N-(4-{(E)-2-[2-(4-butyl-cyclohexyl)-4-oxo-1,3,8-triaza-spiro[4.5]dec-1-ene-8-sulfonyl]-vinyl}-3,5-dimethyl-phenyl)-N-[2-(2-methoxy-ethoxy)-ethyl]-acetamide]
57 | Cc1cc(N2C(=O)CNC2=O)cc(C)c1/C=C/S(=O)(=O)N1CCC2(CC1)N=C(C1CCC(C)CC1)NC2=O (stereo not shown) [Compound 575, 3-(3,5-Dimethyl-4-{(E)-2-[2-(4-methyl-cyclohexyl)-4-oxo-1,3,8-triaza-spiro[4.5]dec-1-ene-8-sulfonyl]-vinyl}-phenyl)-imidazolidine-2,4-dione]
52 | CC(C)(C)OC(=O)N1CCCC(C2=NC3(CCN(S(=O)(=O)CCc4cccc5ccccc45)CC3)C(=O)N2)C1 (stereo not shown) [Compound 38, 3-[8-(2-Naphthalen-1-yl-ethanesulfonyl)-4-oxo-1,3,8-triaza-spiro[4.5]dec-1-en-2-yl]-piperidine-1-carboxylic acid tert-butyl ester]
56 | Nc1cccc(CCS(=O)(=O)N2CCC3(CC2)N=C(C2CCCCC2)NC3=O)c1 [Compound 166, 8-[2-(3-Amino-phenyl)-ethanesulfonyl]-2-cyclohexyl-1,3,8-triaza-spiro[4.5]dec-1-en-4-one]
87 | Cc1cc(C(=O)N2CCC(O)(CF)CC2)cc(C)c1/C=C/S(=O)(=O)N1CCC2(CC1)N=C(C1CCC(CCC(F)(F)F)CC1)NC2=O (stereo not shown) [Compound 990, 8-{(E)-2-[4-(4-fluoromethyl-4-hydroxy-piperidine-1-carbonyl)-2,6-dimethyl-phenyl]-ethenesulfonyl}-2-[4-(3,3,3-trifluoro-propyl)-cyclohexyl]-1,3,8-triaza-spiro[4.5]dec-1-en-4-one]
84 | CC(=O)Nc1ccc(CCS(=O)(=O)N2CCC3(CC2)N=C([C@H]2CC[C@H](CC(F)(F)F)CC2)NC3=O)c(C)c1 [Compound 922, N-[3-methyl-4-(2-{4-oxo-2-[4-(2,2,2-trifluoro-ethyl)-cyclohexyl]-1,3,8-triaza-spiro[4.5]dec-1-ene-8-sulfonyl}-ethyl)-phenyl]-acetamide]
96 | Cc1cc(N(C)C(N)=O)cc(C)c1CCS(=O)(=O)N1CCC2(CC1)N=C(C1(CCCC(F)(F)F)CC1)NC2=O [Compound 1048, 1-[3,5-Dimethyl-4-(2-{4-oxo-2-[1-(4,4,4-trifluoro-butyl)-cyclopropyl]-1,3,8-triaza-spiro[4.5]dec-1-ene-8-sulfonyl}-ethyl)-phenyl]-1-methyl-urea]
113 | Cc1cc(N2CCOCC2=O)cc(C)c1/C=C/S(=O)(=O)N1CCC2(CC1)N=C(C1CCC(C)CC1)NC2=O (stereo not shown) [Compound 515, 8-{(E)-2-[2,6-dimethyl-4-(3-oxo-morpholin-4-yl)-phenyl]-ethenesulfonyl}-2-(4-methyl-cyclohexyl)-1,3,8-triaza-spiro[4.5]dec-1-en-4-one]
41 | COC(=O)Nc1ccc(C)c(/C=C/S(=O)(=O)N2CCC3(CC2)N=C(C2CCCCC2)NC3=O)c1 [Compound 197, {3-[(E)-2-(2-cyclohexyl-4-oxo-1,3,8-triaza-spiro[4.5]dec-1-ene-8-sulfonyl)-vinyl]-4-methyl-phenyl}-carbamic acid methyl ester]
84 | Cc1cc(N(C)C(N)=O)cc(C)c1CCS(=O)(=O)N1CCC2(CC1)N=C(CCCCCc1ccccc1)NC2=O [Compound 1340, 1-(3,5-dimethyl-4-{2-[4-oxo-2-(5-phenyl-pentyl)-1,3,8-triaza-spiro[4.5]dec-1-ene-8-sulfonyl]-ethyl}-phenyl)-1-methyl-urea]
62 | Cc1cc(C(=O)N2CCC(O)(CF)CC2)cc(C)c1/C=C/S(=O)(=O)N1CCC2(CC1)N=C(c1ccc(OCC(F)(F)C(F)(F)F)c(C(F)(F)F)c1)NC2=O [Compound 1249, 8-{(E)-2-[4-(4-fluoromethyl-4-hydroxy-piperidine-1-carbonyl)-2,6-dimethyl-phenyl]-ethenesulfonyl}-2-[4-(2,2,3,3,3-pentafluoro-propoxy)-3-trifluoromethyl-phenyl]-1,3,8-triaza-spiro[4.5]dec-1-en-4-one]
84 | CC(=O)N(CCO)c1cccc(CCS(=O)(=O)N2CCC3(CC2)N=C(c2cccc(OC(F)(F)F)c2)NC3=O)c1C [Compound 327, N-(2-Hydroxy-ethyl)-N-(2-methyl-3-{2-[4-oxo-2-(3-trifluoromethoxy-phenyl)-1,3,8-triaza-spiro[4.5]dec-1-ene-8-sulfonyl]-ethyl}-phenyl)-acetamide]
74 | Cc1cc(C(=O)N2CCN(C(C)C)CC2)ccc1/C=C/S(=O)(=O)N1CCC2(CC1)N=C(c1cccc(OC(F)(F)F)c1)NC2=O [Compound 598, 8-{(E)-2-[4-(4-isopropyl-piperazine-1-carbonyl)-2-methyl-phenyl]-ethenesulfonyl}-2-(3-trifluoromethoxy-phenyl)-1,3,8-triaza-spiro[4.5]dec-1-en-4-one]
108 | Cc1cc(N(C)C(N)=O)cc(C)c1/C=C/S(=O)(=O)N1CCC2(CC1)N=C(CCCCCCCCCc1ccccc1)NC2=O [Compound 1365, 1-(3,5-Dimethyl-4-{(E)-2-[4-oxo-2-(9-phenyl-nonyl)-1,3,8-triaza-spiro[4.5]dec-1-ene-8-sulfonyl]-vinyl}-phenyl)-1-methyl-urea]
45 | Cc1cc(CNC(=O)OC(C)(C)C)ccc1CCS(=O)(=O)N1CCC2(CC1)N=C(c1ccc(F)c(C(F)(F)F)c1)NC2=O [Compound 164, (4-{2-[2-(4-fluoro-3-trifluoromethyl-phenyl)-4-oxo-1,3,8-triaza-spiro[4.5]dec-1-ene-8-sulfonyl]-ethyl}-3-methyl-benzyl)-carbamic acid tert-butyl ester]
54 | CC(=O)Nc1ccc(CCS(=O)(=O)N2CCC3(CC2)N=C([C@H]2CC[C@@H](CCF)CC2)NC3=O)c(C)c1 [Compound 1072, N-[4-(2-{2-[4-(2-fluoro-ethyl)-cyclohexyl]-4-oxo-1,3,8-triaza-spiro[4.5]dec-1-ene-8-sulfonyl}-ethyl)-3-methyl-phenyl]-acetamide]
84 | [2H]C([2H])([2H])C1([2H])CCC(C2=NC3(CCN(S(=O)(=O)CCc4c(C)cc(N(C)C(N)=O)cc4C)CC3)C(=O)N2)CC1 (stereo not shown) [Compound 1364, 1-(3,5-dimethyl-4-{2-[2-(4-[1,1,1-^2H3]-methyl-[4-^2H1]cyclohexyl)-4-oxo-1,3,8-triaza-spiro[4.5]dec-1-ene-8-sulfonyl]-ethyl}-phenyl)-1-methyl-urea]
67 | Cc1cc2ccc1CCS(=O)(=O)N1CCC3(CC1)N=C(NC3=O)c1cc(cc(C(F)(F)F)c1)OCC/C=C/COCCN(CCO)C2=O [Compound 1428]
